Read-outs that look alike come from different tables or passages of the source.
Key:
[1] = test system: recombinant herpesvirus FTKGF; assay: Fluorescence antiviral assay in Vero cells; type: cell-based, herpes simplex 1 virus; conditions: 0.01 MOI, 48 hours
Experimental: In the antiviral assay a special culture plate for fluorescence assays has been used, cultivated with Vero cells (200,000 cells/ml) and infected with the recombinant herpesvirus FTKGF at 0.01 MOI (Multiplicity of infection). For the standard curve (inhibition curve pattern), increasing concentrations of a known inhibitor of HSV infection, the phosphonoacetic acid (PAA), from 0 to 200 μg/ml, were used. The compound was tested at concentrations of […] over the virus. After 48 hours, the fluorescence intensity of FTKGF (reduction in fluorescence levels) in the plate reader Synergy HT Microplate Reader was measured.

PRV-NIA3 = type: cell-based, porcine pseudorabies virus (PRV); conditions: compound 2 μM
[2] = test system: XGF-N (PRG-NIA3 deficient in the envelope glycoprotein gG); type: cell-based, porcine pseudorabies virus (PRV)
HOS = assay: MTT assay; type: cell-based; conditions: Homo sapiens, 48 hours
NCI-H1299 = assay: MTT assay; type: cell-based; conditions: Homo sapiens, 48 hours
A. baumannii = assay: Kirby-Bauer disk diffusion susceptibility test; type: cell-based, Acinetobacter baumannii; conditions: A. baumannii; 100 μg/disc; zone of inhibition
PBMCs = assay: Cellular viability, CellTiter Glo; type: cell-based; conditions: PBMCs cells
Experimental: (§1) All assays for assessing anti-HIV activity were taken in parallel to determine cellular viability of the culture in the presence or absence of different concentrations of the isolated molecule. It was followed exactly the same methodology as in the anti-HIV assay except with the addition of complete DMEM medium instead of supernatant viral, in the same proportion, and the detection of the viability was performed with the viability detection kit CellTiter Glo (Promega), following manufacturer instructions. Viability is directly proportional to the luciferase activity obtained. All data are expressed as percentage relative to a control with DMSO at the same concentration. Antiviral activity and toxicity curves were performed to the compound at different concentrations.

MT-2 cells = assay: Cellular viability, CellTiter Glo; type: cell-based
Experimental: as §1

[3] = Cellular viability, CellTiter Glo; type: cell-based; conditions: human, read-out: CC50 nM (concentration of drug required to kill 50% of cells)
Experimental: as §1

T98G = assay: MTT assay; type: cell-based
Text: This compound has a purple hue.
All tests are always in triplicate.
In Table VIII, quantification of the best IC50 is shown (concentration of compound that inhibits 50% of cell growth) using GraphPad Prism program.

[4] = test system: FTKGF (deficient in thymidine kinase protein); conditions: compound 2 μM
M. abscessus = assay: Kirby-Bauer disk diffusion susceptibility test; type: cell-based, Mycobacterium abscessus; conditions: M. abscessus; 100 μg/disc; zone of inhibition
[5] = Cellular viability, CellTiter Glo (Table V, cells not stated); type: cell-based; conditions: human, relative to DMSO control
Experimental: as §1

[6] = test system: all species tested (pathogenic bacteria); type: cell-based
MCF7 = assay: MTT assay; type: cell-based; conditions: Homo sapiens, 48 hours
[7] = test system: HIV virus (NL4.3-Ren) and HIV virus pseudotyped with the envelope of VSV (NL4.3-VSV-Luc); assay: Virus entry test, HIV and VSV-pseudotyped HIV in parallel; type: cell-based; conditions: NL4.3-Ren and NL4.3-VSV-Luc in parallel
PC3 = assay: MTT assay; type: cell-based; conditions: Homo sapiens, PC-3, 48 hours
M. chelonae = assay: Kirby-Bauer disk diffusion susceptibility test; type: cell-based; conditions: M. chelonae; 100 μg/disc; zone of inhibition
HIV virus (NL4.3-Ren) = assay: microbe, parasite or virus in culture; type: cell-based; conditions: for Viral replication (%): relative to DMSO control, cells not given
HSV-2, strain G = conditions: compound 2 μM
M. fortuitum = assay: Kirby-Bauer disk diffusion susceptibility test; type: cell-based; conditions: M. fortuitum; 100 μg/disc; zone of inhibition
S. aureus = assay: Kirby-Bauer disk diffusion susceptibility test; type: cell-based, Staphylococcus aureus; conditions: S. aureus; 100 μg/disc; zone of inhibition
T. pulmonis = assay: Kirby-Bauer disk diffusion susceptibility test; type: cell-based, Tsukamurella pulmonis; conditions: T. pulmonis; 100 μg/disc; zone of inhibition
[8] = test system: equine herpes virus type 1 (EHV-1); assay: Viral titer reduction; type: cell-based; conditions: 2 μM
HSV-1, strain F = conditions: compound 2 μM
N. carnea = assay: Kirby-Bauer disk diffusion susceptibility test; type: cell-based, Nocardia carnea; conditions: N. carnea; 100 μg/disc; zone of inhibition

For `CCCCCC1=NN(C(=O)CCO)OC(CCCCC)C1` (centres unmarked) [Compound, 1-(4,6-dipentyl-5,6-dihydro-2H-1,2,3-oxadiazin-2-yl)-3-hydroxypropan-1-one], the inhibition at 0.2 µM ([1]; 200 nM) was 60%, the inhibition at 0.4 µM ([1]; 400 nM) was 92% and the “reduction of the titer” value (PRV-NIA3) was 0.5 logarithms. The “reduction of the titer” value [2] was 1 logarithm, the IC50 (HOS) was 170 nM and the IC50 (NCI-H1299) was 192 nM. For the same molecule, the “Activity (mm), 100 μg/disc” value (A. baumannii) was 10-12 mm, the toxicity (PBMCs) was “only in the highest concentrations tested (5 and 10 μM)” and the toxicity (MT-2 cells) was “only in the highest concentrations tested (5 and 10 μM)”. For the same molecule, the CC50 ([3]; MT-2 cells) was 2500 to 5000 nM, the CC50 ([3]; PBMCs) was 2500 to 5000 nM and the “concentration at which inhibition is obtained” value (T98G) was 50 nM. For the same molecule, the “optimal concentration of inhibition” value (T98G) was 100 nM, the IC50 (T98G; Homo sapiens, 48 hours) was 106 nM and the “reduction of the titer” value [4] was 2.5 logarithms. The “Activity (mm), 100 μg/disc” value (M. abscessus) was 56 mm, the viability at 0.19 µM ([5]; 0.19 μM) was 114% and the viability at 0.39 µM ([5]; 0.39 μM) was 113%. The viability at 0.78 µM ([5]; 0.78 μM) was 109%, the viability at 1.56 µM ([5]; 1.56 μM) was 96% and the viability at 3.12 µM ([5]; 3.12 μM) was 78%. It also gave a viability at 6.25 µM ([5]; 6.25 μM) of 31%, a viability at 12.5 µM ([5]; 12.5 μM) of 7% and a viability at 25 µM ([5]; 25 μM) of 4%. The viability at 50 µM ([5]; 50 μM) was 2%, the viability at 100 µM ([5]; 100 μM) was 0% and the “kind of antibiotic activity” value [6] was “bactericidal”. For the same molecule, the IC50 (MCF7) was 127 nM, the “inhibition of HIV and VSV-pseudotyped HIV (dependence on virus entry)” value [7] was “inhibited both viruses with the same potency” and the IC50 (PC3) was 217 nM. The “Activity (mm), 100 μg/disc” value (M. chelonae) was 63 mm, the “Viral replication (%)” value (HIV virus (NL4.3-Ren); 0.19 μM) was 45% and the “Viral replication (%)” value (HIV virus (NL4.3-Ren); 0.39 μM) was 14%. For the same molecule, the “Viral replication (%)” value (HIV virus (NL4.3-Ren); 0.78 μM) was 3%, the “Viral replication (%)” value (HIV virus (NL4.3-Ren); 1.56 μM) was 1% and the “Viral replication (%)” value (HIV virus (NL4.3-Ren); 3.12 μM) was 0%. For the same molecule, the “Viral replication (%)” value (HIV virus (NL4.3-Ren); 6.25 μM) was 0%, the “Viral replication (%)” value (HIV virus (NL4.3-Ren); 12.5 μM) was 0% and the “Viral replication (%)” value (HIV virus (NL4.3-Ren); 25 μM) was 0%. For the same molecule, the “Viral replication (%)” value (HIV virus (NL4.3-Ren); 50 μM) was 0%, the “Viral replication (%)” value (HIV virus (NL4.3-Ren); 100 μM) was 0% and the IC50 (HIV virus (NL4.3-Ren); Human immunodeficiency virus 1, MT2, read-out: IC50 nM) was 243 nM. The IC50 (HIV virus (NL4.3-Ren); Human immunodeficiency virus 1, PBMC, read-out: IC50 nM) was 362 nM, the “reduction of the titer” value (HSV-2, strain G) was 3 logarithms and the “Activity (mm), 100 μg/disc” value (M. fortuitum) was 44 mm. For the same molecule, the “Activity (mm), 100 μg/disc” value (S. aureus) was 20-22 mm, the “Activity (mm), 100 μg/disc” value (T. pulmonis) was 49-52 mm and the “reduction of the titer” value [8] was 1 logarithm. For the same molecule, the “reduction of the titer” value (HSV-1, strain F) was 1.5 logarithms and the “Activity (mm), 100 μg/disc” value (N. carnea) was 48-50 mm.
